The target in assay [1] is cynomolgus monkey STING protein (Macaca fascicularis, UniProt A0A2R3XZA6). Briefly: Luciferase reporter assay, cynomolgus monkey STING overexpressed in HEK293T cells. The class given is cell-based. The conditions noted are these: cynomolgus monkey STING overexpressed in HEK293T cells; read-out: Cynomolgus monkey STING activity (EC50 range). The protocol: 5×10^5 clonally selected HEK293T-hSTING-Luciferase cells were seeded in 384-well plates in growth medium and stimulated with novel compounds. After 20 hr of stimulation supernatant were removed and secretary reporter gene activity were measured using the Quanti-Luc detection system (Invivogen) on a Spectramax i3X luminometer.
Chain of cynomolgus monkey STING protein (A0A2R3XZA6 entry or part of it): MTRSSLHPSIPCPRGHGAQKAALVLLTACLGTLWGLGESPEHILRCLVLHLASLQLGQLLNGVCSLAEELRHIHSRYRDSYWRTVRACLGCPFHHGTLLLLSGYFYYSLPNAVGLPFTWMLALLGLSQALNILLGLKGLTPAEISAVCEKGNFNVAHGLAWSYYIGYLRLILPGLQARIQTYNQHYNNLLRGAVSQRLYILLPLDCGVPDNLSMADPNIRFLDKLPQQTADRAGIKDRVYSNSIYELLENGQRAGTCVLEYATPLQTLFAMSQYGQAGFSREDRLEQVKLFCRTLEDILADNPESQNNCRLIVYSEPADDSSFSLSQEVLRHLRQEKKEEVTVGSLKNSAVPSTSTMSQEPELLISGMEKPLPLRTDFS
In the tables below, EC50 value ranges for exemplary compounds are given.
Selected compounds were further tested against cynomolgus monkey STING protein overexpressed in HEK293T cells.
In general terms: A reporter such as luciferase makes a cellular process visible.

A further assay deals with hSTING(R232) (Homo sapiens, UniProt Q86WV6, H232R). The experiment in a line: Luciferase reporter assay in HEK293T-hSTING-Luciferase cells, R232 (wild type) human STING. In kind it is cell-based. The conditions noted are these: 20 hr stimulation, read-out: R232 human activity (EC50 range). The procedure, abridged:
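After 20 hr compound stimulation of 5×10^5 cells, secreted luciferase in the supernatant was measured by luminescence; values are fold-induction over baseline and EC50. The line is a clonal HEK293T stably carrying a STING plasmid (pUNO-1) and a luciferase reporter under five tandem ISREs fused to an ISG54 promoter.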

Among the data in US11571423B2, “Small molecule modulators of human sting” (Curadev Pharma Limited, priority 2017, dated 2023) are EC50 values, retold here.

In general, EC50 refers to the concentration that produces a half-maximal response.

Chain of hSTING(R232) (Q86WV6 whole entry H232R, the tested form may be a part): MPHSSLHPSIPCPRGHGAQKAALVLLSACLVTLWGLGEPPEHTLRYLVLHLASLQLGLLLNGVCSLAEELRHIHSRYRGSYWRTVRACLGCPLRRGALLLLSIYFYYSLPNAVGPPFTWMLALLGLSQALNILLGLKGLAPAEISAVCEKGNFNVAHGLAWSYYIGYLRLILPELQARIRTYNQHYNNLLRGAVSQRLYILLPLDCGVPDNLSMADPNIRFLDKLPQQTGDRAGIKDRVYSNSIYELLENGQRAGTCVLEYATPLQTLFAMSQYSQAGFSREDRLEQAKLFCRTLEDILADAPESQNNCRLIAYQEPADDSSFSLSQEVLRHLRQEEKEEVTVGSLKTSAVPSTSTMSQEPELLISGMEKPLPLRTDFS

In the case of `COc1cc(F)c(CN2C(=O)N(C)[C@@H](C)c3ccc(C(=O)NCc4c(F)cc(F)cc4F)cc32)c(F)c1` [Example 79, (S)-1-(2,6-Difluoro-4-methoxybenzyl)-3,4-dimethyl-2-oxo-N-(2,4,6-trifluorobenzyl)-1,2,3,4-tetrahydroquinazoline-7-carboxamide], the EC50 (in assay [1]; at hSTING(R232)) was below 1000 nM each time.

As to `COc1cc(F)c(CNC(=O)c2ccc3c(c2)N(Cc2c(F)cc(OC)cc2F)C(=O)N(C)[C@H]3C)c(F)c1` [Example 149, (S)—N,1-bis(2,6-difluoro-4-methoxybenzyl)-3,4-dimethyl-2-oxo-1,2,3,4-tetrahydroquinazoline-7-carboxamide], the EC50 (in assay [1]; on hSTING(R232)) was below 1000 nM each time.

As to `C[C@H]1c2ccc(C(=O)NCc3c(F)cc(F)cc3F)cc2N(Cc2c(F)cc(OP(=O)(O)O)cc2F)C(=O)N1C` [Example 84, (S)-4-((3,4-Dimethyl-2-oxo-7-((2,4,6-trifluorobenzyl)carbamoyl)-3,4-dihydroquinazolin-1(2H)-yl)methyl)-3,5-difluorophenyl dihydrogen phosphate], the EC50 (in assay [1]; at hSTING(R232)) was below 1000 nM each time.

Turning to `CC1c2ccc(C(=O)NCc3c(F)cc(F)cc3F)cc2N(Cc2cc(O)ccc2F)C(=O)N1C` (stereo not shown) [Example 231, 1-(2-fluoro-5-hydroxybenzyl)-3,4-dimethyl-2-oxo-N-(2,4,6-trifluorobenzyl)-1,2,3,4-tetrahydroquinazoline-7-carboxamide], the EC50 (in assay [1]; on hSTING(R232)) was below 1000 nM throughout.

Turning to `COc1cc(F)c(F)c(CN2C(=O)N(C)[C@@H](C)c3ccc(C(=O)NCc4c(F)cc(F)cc4F)cc32)c1` [Example 270, (S)-1-(2,3-difluoro-5-methoxybenzyl)-3,4-dimethyl-2-oxo-N-(2,4,6-trifluorobenzyl)-1,2,3,4-tetrahydroquinazoline-7-carboxamide], the EC50 (in assay [1]; at hSTING(R232)) was below 1000 nM each time.

Turning to `Cc1ncc(Cl)c(CN2C(=O)N(C)C(C)c3ccc(C(=O)NCc4c(F)cc(F)cc4F)cc32)c1F` (stereo not shown) [Example 176, 1-((5-chloro-3-fluoro-2-methylpyridin-4-yl)methyl)-3,4-dimethyl-2-oxo-N-(2,4,6-trifluorobenzyl)-1,2,3,4-tetrahydroquinazoline-7-carboxamide], the EC50 (in assay [1]; on hSTING(R232)) was below 1000 nM in each case.

Consider `Cc1cccc(CN2C(=O)N(C)[C@@H](C)c3ccc(C(=O)NCc4c(F)cc(F)cc4F)cc32)c1F` [Example 168, (S)-1-(2-fluoro-3-methylbenzyl)-3,4-dimethyl-2-oxo-N-(2,4,6-trifluorobenzyl)-1,2,3,4-tetrahydroquinazoline-7-carboxamide], for which the concentration giving a half-maximal response (EC50) (in assay [1]; at hSTING(R232)) was below 1000 nM in each case.

For the compound `CC(O)c1ccc(F)c(CN2C(=O)N(C)[C@@H](C)c3ccc(C(=O)NCc4c(F)cc(F)cc4F)cc32)c1F` (stereo partly drawn) [Example 289, (4S)-1-(2,6-difluoro-3-(1-hydroxyethyl)benzyl)-3,4-dimethyl-2-oxo-N-(2,4,6-trifluorobenzyl)-1,2,3,4-tetrahydroquinazoline-7-carboxamide], the EC50 was 1000 to 10000 nM in assay [1] and below 1000 nM on hSTING(R232).

In the case of `C[C@H]1c2ccc(C(=O)NCc3c(F)cc(F)cc3F)cc2N(Cc2c(F)cncc2F)C(=O)N1C` [Example 295, (S)-1-((3,5-difluoropyridin-4-yl)methyl)-3,4-dimethyl-2-oxo-N-(2,4,6-trifluroobenzyl)-1,2,3,4-tetrahydroquinazoline-7-carboxamide], the EC50 (in assay [1]; on hSTING(R232)) was below 1000 nM throughout.

As to `C[C@H]1c2ccc(C(=O)NCc3c(F)cc(F)cc3F)cc2N(Cc2c(F)ccc(OCCOP(=O)(O)O)c2Cl)C(=O)N1C` [Example 95, (S)-2-(2-chloro-3-((3,4-dimethyl-2-oxo-7-((2,4,6-trifluorobenzyl)carbamoyl)-3,4-dihydroquinazolin-1(2H)-yl)methyl)-4-fluorophenoxy)ethyl dihydrogen phosphate], the figures for the EC50 (in assay [1]; on hSTING(R232)) were above 10000 nM and below 1000 nM, respectively.

Take `C[C@H]1c2ccc(C(=O)NCc3c(F)cc(F)cc3F)cc2N(Cc2c(F)cc(OCC(O)CO)cc2F)C(=O)N1C` (stereo partly drawn) [Example 145, (4S)-1-(4-(2,3-Dihydroxypropoxy)-2,6-difluorobenzyl)-3,4-dimethyl-2-oxo-N-(2,4,6-trifluorobenzyl)-1,2,3,4-tetrahydroquinazoline-7-carboxamide]: the EC50 (in assay [1]; on hSTING(R232)) was below 1000 nM throughout.

Consider `CC1c2ccc(C(=O)NCc3c(F)cc(F)cc3F)cc2N(Cc2c(F)cccc2C(F)(F)F)C(=O)N1C` (stereo not shown) [Example 209, 1-(2-fluoro-6-(trifluoromethyl)benzyl)-3,4-dimethyl-2-oxo-N-(2,4,6-trifluorobenzyl)-1,2,3,4-tetrahydroquinazoline-7-carboxamide], for which the EC50 (in assay [1]; at hSTING(R232)) was below 1000 nM each time.

On to `C[C@H]1c2ccc(C(=O)NCc3c(F)cc(F)cc3F)cc2N(Cc2c(OCCO)ccc(F)c2F)C(=O)N1C` [Example 254, (S)-1-(2,3-difluoro-6-(2-hydroxyethoxy)benzyl)-3,4-dimethyl-2-oxo-N-(2,4,6-trifluorobenzyl)-1,2,3,4-tetrahydroquinazoline-7-carboxamide], for which the EC50 is 1000 to 10000 nM in assay [1] and below 1000 nM at hSTING(R232).

On to `C[C@H]1c2ccc(C(=O)NCc3c(F)cc(F)cc3F)cc2N(Cc2c(F)cc(N)cc2F)C(=O)N1C` [Example 286, (S)-1-(4-amino-2,6-difluorobenzyl)-3,4-dimethyl-2-oxo-N-(2,4,6-trifluorobenzyl)-1,2,3,4-tetrahydroquinazoline-7-carboxamide], for which the concentration giving a half-maximal response (EC50) (in assay [1]; at hSTING(R232)) was below 1000 nM in each case.

On to `C[C@H]1c2ccc(C(=O)NCc3c(F)cc(F)cc3F)cc2N(Cc2c(F)cc(OC[C@H](O)CO)cc2F)C(=O)N1C` [Example 146, (S)-1-(4-((R)-2,3-Dihydroxypropoxy)-2,6-difluorobenzyl)-3,4-dimethyl-2-oxo-N-(2,4,6-trifluorobenzyl)-1,2,3,4-tetrahydroquinazoline-7-carboxamide], for which the EC50 (in assay [1]; on hSTING(R232)) was below 1000 nM throughout.

Consider `COc1ccc(F)c(CN2C(=O)N(C)[C@@H](C)c3ccc(C(=O)NCc4c(F)cc(F)cc4F)cc32)c1` [Example 183, (S)-1-(2-fluoro-5-methoxybenzyl)-3,4-dimethyl-2-oxo-N-(2,4,6-trifluorobenzyl)-1,2,3,4-tetrahydroquinazoline-7-carboxamide], for which the EC50 (in assay [1]; on hSTING(R232)) was below 1000 nM each time.

As to `C[C@H]1c2ccc(C(=O)NCc3c(F)cc(F)cc3F)cc2N(Cc2c(F)cc(F)cc2OCCCO)C(=O)N1C` [Example 275, (S)-1-(2,4-difluoro-6-(3-hydroxypropoxy)benzyl)-3,4-dimethyl-2-oxo-N-(2,4,6-trifluorobenzyl)-1,2,3,4-tetrahydroquinazoline-7-carboxamide], the EC50 in assay [1] was above 10000 nM; on hSTING(R232), below 1000 nM.

`C[C@H]1c2ccc(C(=O)NCc3c(F)cc(F)cc3F)cc2N(Cc2c(F)cc(OCCOC(=O)CN)cc2F)C(=O)N1C` [Example 187, (S)-2-(4-((3,4-dimethyl-2-oxo-7-((2,4,6-trifluorobenzyl)carbamoyl)-3,4-dihydroquinazolin-1(2H)-yl)methyl)-3,5-difluorophenoxy)ethyl 2-aminoacetate]: the EC50 (in assay [1]; on hSTING(R232)) was below 1000 nM each time.

In the case of `C[C@H]1c2ccc(C(=O)NCc3c(F)cc(F)cc3F)cc2N(Cc2c(F)cc(OCCCOP(=O)(O)O)cc2F)C(=O)N1C` [Example 82, (S)-3-(4-((3,4-dimethyl-2-oxo-7-((2,4,6-trifluorobenzyl)carbamoyl)-3,4-dihydroquinazolin-1(2H)-yl)methyl)-3,5-difluorophenoxy)propyl dihydrogen phosphate], the EC50 (in assay [1]; on hSTING(R232)) was below 1000 nM in each case.

As for `C=CCOc1cc(F)c(CN2C(=O)N(C)[C@@H](C)c3ccc(C(=O)NCc4c(F)cc(F)cc4F)cc32)c(F)c1` [Example 144], the EC50 (in assay [1]; on hSTING(R232)) was below 1000 nM each time.

For the compound `COc1cc(F)c(CN2C(=O)N(C)[C@@H](C)c3ccc(C(=O)NCc4c(F)cc(F)cc4F)cc32)cc1OC` [Example 265, (S)-1-(2-fluoro-4,5-dimethoxybenzyl)-3,4-dimethyl-2-oxo-N-(2,4,6-trifluorobenzyl)-1,2,3,4-tetrahydroquinazoline-7-carboxamide], the EC50 (in assay [1]; at hSTING(R232)) was below 1000 nM in each case.

On to `C[C@H]1c2ccc(C(=O)NCc3c(F)cc(F)cc3F)cc2N(Cc2c(F)ccc(OCOP(=O)(O)O)c2Cl)C(=O)N1C` [Example 90, (S)-(2-Chloro-3-((3,4-dimethyl-2-oxo-7-((2,4,6-trifluorobenzyl)carbamoyl)-3,4-dihydroquinazolin-1(2H)-yl)methyl)-4-fluorophenoxy)methyl dihydrogen phosphate], for which the EC50 (in assay [1]; on hSTING(R232)) was below 1000 nM throughout.

Regarding `C[C@H]1c2ccc(C(=O)NCc3c(F)cc(F)cc3F)cc2N(Cc2c(F)ccc(OP(=O)(O)O)c2F)C(=O)N1C` [Example 102, (S)-3-((3,4-dimethyl-2-oxo-7-((2,4,6-trifluorobenzyl)carbamoyl)-3,4-dihydroquinazolin-1(2H)-yl)methyl)-2,4-difluorophenyl dihydrogen phosphate], the EC50 (in assay [1]; at hSTING(R232)) was below 1000 nM in each case.
